Measurements published in patent US20260285850A1, “SUBSTITUTED OXAZOLIDINONES AND IMIDAZOLINONES AS HERBICIDES” (FMC CORPORATION, priority 2023, published 2026).

Tests used:
Assay type in all cases: in vivo
[1] = tested on: oat, wild (wild oat, Avena fatua); test: Test A preemergence soil spray, visual injury rating 0-100; conditions: 10 days
Summary of the method: (§1)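 Visual injury ratings (0, no effect; 100, complete control) were assigned relative to untreated plants 10 days after treatment. Test chemicals, formulated with a surfactant-containing non-phytotoxic solvent, were applied in loam-sand soil either as a directed soil spray before emergence or to emerged plants, and plants were kept in a greenhouse.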

[2] = tested on: corn (Zea mays); test: as above; conditions: 10 days
Summary of the method: as §1

[3] = tested on: kochia (Bassia scoparia); test: as above; conditions: 62 g ai/ha, 10 days, 0 = no effect, 100 = complete control
Summary of the method: as §1

[4] = tested on: ragweed (common ragweed, Ambrosia artemisiifolia); test: as above; conditions: 10 days
Summary of the method: as §1

[5] = tested on: blackgrass (Alopecurus myosuroides); test: as above; conditions: 10 days
Summary of the method: as §1

[6] = tested on: wheat (Triticum aestivum); test: as above; conditions: 10 days
Summary of the method: as §1

[7] = tested on: soybean (Glycine max); test: as above; conditions: 10 days
Summary of the method: as §1

[8] = tested on: barnyardgrass (Echinochloa crus-galli); test: as above; conditions: 10 days
Summary of the method: as §1

[9] = tested on: green foxtail (Setaria viridis); test: as above; conditions: 10 days
Summary of the method: as §1

[10] = tested on: ryegrass, Italian (italian ryegrass, Lolium multiflorum); test: as above; conditions: 10 days
Summary of the method: as §1

[11] = tested on: palmer (palmer amaranth, palmer pigweed, Amaranthus palmeri); test: as above; conditions: 10 days
Summary of the method: as §1

[12] = tested on: sedge, umbrella (small-flower umbrella sedge, Cyperus difformis); test: Test B flooded paddy test, visual plant response rating 0-100; conditions: 250 g ai/ha, Flood, applied to paddy water, evaluated after 13 days
Summary of the method: (§2)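 Visual evaluation after 13 days. Water-applied treatment, 3 cm flood depth held constant, plants at 2-leaf stage at treatment.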

[13] = tested on: barnyardgrass (Echinochloa crusgalli); test: as above; conditions: 250 g ai/ha, Flood, applied to paddy water, evaluated after 13 days
Summary of the method: as §2

[14] = tested on: rice (Oryza sativa); test: as above; conditions: 250 g ai/ha, Flood, applied to paddy water, evaluated after 13 days
Summary of the method: as §2

[15] = tested on: ducksalad (Heteranthera limosa); test: as above; conditions: 250 g ai/ha, Flood, applied to paddy water, evaluated after 13 days
Summary of the method: as §2

[16] = tested on: oat, wild (wild oat, Avena fatua); test: Test A postemergence application, visual injury rating 0-100
Summary of the method: as §1

[17] = tested on: galium (catchweed bedstraw, Galium aparine); test: as above
Summary of the method: as §1

[18] = tested on: corn (Zea mays); test: as above
Summary of the method: as §1

[19] = tested on: kochia (Bassia scoparia); test: as above
Summary of the method: as §1

[20] = tested on: ragweed (common ragweed, Ambrosia artemisiifolia); test: as above
Summary of the method: as §1

[21] = tested on: blackgrass (Alopecurus myosuroides); test: as above
Summary of the method: as §1

[22] = tested on: wheat (Triticum aestivum); test: as above
Summary of the method: as §1

[23] = tested on: soybean (Glycine max); test: as above
Summary of the method: as §1

[24] = tested on: horseweed (Erigeron canadensis); test: as above
Summary of the method: as §1

[25] = tested on: barnyardgrass (Echinochloa crus-galli); test: as above
Summary of the method: as §1

[26] = tested on: green foxtail (Setaria viridis); test: as above
Summary of the method: as §1

[27] = tested on: ryegrass, Italian (italian ryegrass, Lolium multiflorum); test: as above
Summary of the method: as §1

[28] = tested on: palmer (palmer amaranth, palmer pigweed, Amaranthus palmeri); test: as above
Summary of the method: as §1

[29] = 62 g ai/ha, 0 = no effect, 100 = complete control
[30] = 62 g ai/ha, postemergence, 10 days, 0 = no effect, 100 = complete control
[31] = Postemergence, 16 g ai/ha, greenhouse 10 days, 0 no effect, 100 complete control

CCOC(=O)C1C=CC(NC(=O)C2(C)CN(c3cc(C)cc(C)c3)C(=O)O2)C1 (stereo not drawn) [Compound 116]
Oat, Wild plant response rating ([1]; 16 g ai/ha, 0 to 100 scale): 0 | Oat, Wild plant response rating (0-100) [1, 29]: 50 | Corn plant response rating ([2]; 16 g ai/ha, 0 to 100 scale): 0 | Corn plant response rating (0-100) [2, 29]: 10 | Kochia plant response rating (0-100) [3]: 100 | Ragweed plant response rating ([4]; 16 g ai/ha, 0 to 100 scale): 0 | Ragweed plant response rating (0-100) [4, 29]: 0 | Blackgrass plant response rating ([5]; 16 g ai/ha, 0 to 100 scale): 0 | Blackgrass plant response rating (0-100) [5, 29]: 70 | Wheat plant response rating ([6]; 16 g ai/ha, 0 to 100 scale): 0 | Wheat plant response rating (0-100) [6, 29]: 30 | Soybean plant response rating ([7]; 16 g ai/ha, 0 to 100 scale): 0 | Soybean plant response rating (0-100) [7, 29]: 0 | Barnyardgrass plant response rating ([8]; 16 g ai/ha, 0 to 100 scale): 30 | Barnyardgrass plant response rating (0-100) [8, 29]: 100 | Foxtail, Green plant response rating ([9]; 16 g ai/ha, 0 to 100 scale): 0 | Foxtail, Green plant response rating (0-100) [9, 29]: 80 | Ryegrass, Italian plant response rating ([10]; 16 g ai/ha, 0 to 100 scale): 0 | Ryegrass, Italian plant response rating (0-100) [10, 29]: 70 | Pigweed, Palmer plant response rating ([11]; 16 g ai/ha, 0 to 100 scale): 10 | Pigweed, Palmer plant response rating (0-100) [11, 29]: 100 | Plant response rating, Sedge, Umbrella (0 to 100 scale, 0 is no effect and 100 is complete control) [12]: 55 | Plant response rating, Barnyardgrass (0 to 100 scale, 0 is no effect and 100 is complete control) [13]: 75 | Plant response rating, Rice (0 to 100 scale, 0 is no effect and 100 is complete control) [14]: 50 | Plant response rating, Ducksalad (0 to 100 scale, 0 is no effect and 100 is complete control) [15]: 45 | Oat, Wild plant response rating (0-100) [16, 30]: 90 | Oat, Wild plant response rating (0 to 100 scale) [16, 31]: 60 | Galium plant response rating (0-100) [17, 30]: 70 | Galium plant response rating (0 to 100 scale) [17, 31]: 60 | Corn plant response rating (0-100) [18, 30]: 100 | Corn plant response rating (0 to 100 scale) [18, 31]: 40 | Kochia plant response rating (0-100) [19, 30]: 60 | Kochia plant response rating (0 to 100 scale) [19, 31]: 20 | Ragweed plant response rating (0-100) [20, 30]: 30 | Ragweed plant response rating (0 to 100 scale) [20, 31]: 0 | Blackgrass plant response rating (0-100) [21, 30]: 90 | Blackgrass plant response rating (0 to 100 scale) [21, 31]: 80 | Wheat plant response rating (0-100) [22, 30]: 90 | Wheat plant response rating (0 to 100 scale) [22, 31]: 40 | Soybean plant response rating (0-100) [23, 30]: 60 | Soybean plant response rating (0 to 100 scale) [23, 31]: 50 | Horseweed plant response rating (0-100) [24, 30]: 0 | Horseweed plant response rating (0 to 100 scale) [24, 31]: 0 | Barnyardgrass plant response rating (0-100) [25, 30]: 100 | Barnyardgrass plant response rating (0 to 100 scale) [25, 31]: 70 | Foxtail, Green plant response rating (0-100) [26, 30]: 30 | Foxtail, Green plant response rating (0 to 100 scale) [26, 31]: 10 | Ryegrass, Italian plant response rating (0-100) [27, 30]: 70 | Ryegrass, Italian plant response rating (0 to 100 scale) [27, 31]: 20 | Pigweed, Palmer plant response rating (0-100) [28, 30]: 40 | Pigweed, Palmer plant response rating (0 to 100 scale) [28, 31]: 0
